Source: US20250197384A1, “AZOLE COMPOUND AND ANTIFUNGAL AGENT” (NIHON NOHYAKU CO., LTD., priority 2022, published 2025)
In brackets after ≈: the same amount, converted by molar mass.

Tests used:
[1] = system: Candida albicans NBRC1270; assay: In vitro anti-Candida activity test; type: cell-based; details: for C. albicans (MIC): 80% or more inhibition, unit inferred; for minimum inhibitory concentration against various fungi (MIC) C. albicans: Table 22, 35° C. for 24 hr, alamar Blue, minimum concentration showing 80% or more inhibition
Procedure: Candida albicans NBRC1270 was used as the strain. The test fungi were cultured on a Sabouraud dextrose agar slant medium at 35° C. for 24 hr, and then suspended in sterilized saline. The number of cells in this suspension was counted using a hemocytometer, and the same suspension was adjusted to a cell concentration of 1.5×10^5 cells/mL, and this was used as an inoculum. Each compound was dissolved in dimethyl sulfoxide to a predetermined concentration, and diluted 50-fold with 0.165 M MOPS buffered RPMI 1640 liquid medium, and each diluted solution was dispensed into a 96-well microplate by each 100 μL. The inoculum was diluted 50-fold with 0.165 M MOPS buffered RPMI 1640 liquid medium containing 20% alamar Blue™, and the diluted solution was inoculated into the 96-well microplate containing the compound by each 100 μL (final inoculum amount 1.5×10^3 cells/mL). After static culture at 35° C. for 24 hr, the degree of color development of the alamar Blue™ was measured using a microplate reader (O.D. 570-595 nm), and the minimum concentration showing 80% or more inhibition was defined as the minimum inhibitory concentration (MIC).

[2] = system: Aspergillus fumigatus TIMM0063; assay: In vitro anti-Aspergillus activity test; type: cell-based; details: for A. fumigatus (MIC): 80% or more inhibition, unit inferred; for minimum inhibitory concentration against various fungi (MIC) A. fumigatus: Table 22, 35° C. for 48 hr, alamar Blue, minimum concentration showing 80% or more inhibition
Procedure: Aspergillus fumigatus TIMM0063 was used as the strain. The test fungi were cultured on a Potato dextrose agar slant medium at 35° C. for 4 days, and then sterilized saline containing 0.1% (v/v) Tween 80 was added to release the conidia. This conidial suspension was filtered through sterile gauze, and the number of conidia was counted using a hemocytometer. The same solution was adjusted to a conidial concentration of 1×10^6 conidia/mL, and this was used as an inoculum. Each compound was dissolved in dimethyl sulfoxide to a predetermined concentration, and diluted 50-fold with 0.165 M MOPS buffered RPMI 1640 liquid medium, and each diluted solution was dispensed into a 96-well microplate by each 100 μL. The inoculum was diluted 50-fold with 0.165 M MOPS buffered RPMI 1640 liquid medium containing 20% alamar Blue™, and the diluted solution was inoculated into the 96-well microplate containing the compound by each 100 μL (final inoculum amount 1.0×10^4 conidia/mL). After static culture at 35° C. for 48 hr, the degree of color development of the alamar Blue™ was measured using a microplate reader (O.D. 570-595 nm), and the minimum concentration showing 80% or more inhibition was defined as the minimum inhibitory concentration (MIC).

Question: For `CCCON=Cc1cnc(C2CSC(=C(C#N)n3cncn3)S2)c(Cl)c1` (racemic) [compound 141], which C. albicans (MIC) ([1]; Table 24, 35° C. for 24 hr) is on record?
Answer: Its C. albicans (MIC) is 2.5 ng/mL.

Question: What about the A. fumigatus (MIC) ([2]; Table 24, 35° C. for 48 hr) of the same compound?
Answer: Its A. fumigatus (MIC) is 2.5 ng/mL.

Question: What does the source list for `CC1CC1COC(=O)Nc1cnc(C2CS/C(=C(/C#N)n3cncn3)S2)c(Cl)c1` (racemic) [compound 118]?
Answer: C. albicans (MIC) ([1]; Table 24, 35° C. for 24 hr): 1.25 ng/mL; A. fumigatus (MIC) ([2]; Table 24, 35° C. for 48 hr): 5 ng/mL

Question: With `N#C/C(=C1/SCC(c2ncc(NC(=O)OCc3ccccc3)cc2Cl)S1)n1ccnc1` (centres unmarked) [compound 17] as the compound, how does the “minimum inhibitory concentration against various fungi (MIC) C. albicans” value [1] read?
Answer: Its value is 1.3 ng/mL (≈ 0.00277 µM).

Question: What about the “minimum inhibitory concentration against various fungi (MIC) A. fumigatus” value [2] of the same compound?
Answer: Its value is 5 ng/mL (≈ 0.0106 µM).

Question: For `N#C/C(=C1/SCC(c2ncc(/C=N/OCc3ccccc3)cc2Cl)S1)n1ccnc1` (centres unmarked) [compound 26], which “minimum inhibitory concentration against various fungi (MIC) C. albicans” value [1] is on record?
Answer: The value was 1.3 ng/mL (≈ 0.00286 µM).

Question: What about the “minimum inhibitory concentration against various fungi (MIC) A. fumigatus” value [2] of the same compound?
Answer: Its value is 5 ng/mL (≈ 0.011 µM).

Question: For `CCO/N=C/c1cnc(C2CS/C(=C(/C#N)n3cncn3)S2)c(F)c1` (centres unmarked) [compound 20], which “minimum inhibitory concentration against various fungi (MIC) C. albicans” value [1] is on record?
Answer: The value was 13 ng/mL (≈ 0.0345 µM).

Question: And the “minimum inhibitory concentration against various fungi (MIC) A. fumigatus” value [2]?
Answer: The value was 10 ng/mL (≈ 0.0266 µM).

Question: How did the C. albicans (MIC) ([1]; Table 24, 35° C. for 24 hr) turn out when `N#C/C(=C1/SC[C@@H](c2ncc(NC(=O)OCC3CC3(F)F)cc2Cl)S1)n1cncn1` (some centres unmarked) [compound 130] was run?
Answer: Its C. albicans (MIC) is 2.5 ng/mL.

Question: What about the A. fumigatus (MIC) ([2]; Table 24, 35° C. for 48 hr) of the same compound?
Answer: The A. fumigatus (MIC) was 5 ng/mL.

Question: `CCCOC(=O)Nc1cnc([C@@H]2CS/C(=C(/C#N)n3cncn3)S2)c(Cl)c1` [compound 94] was tested. Which C. albicans (MIC) ([1]; Table 23, 35° C. for 24 hr) did it give?
Answer: The C. albicans (MIC) was 2.5 ng/mL.

Question: What about the A. fumigatus (MIC) ([2]; Table 23, 35° C. for 48 hr) of the same compound?
Answer: The A. fumigatus (MIC) was 2.5 ng/mL.

Question: For `N#C/C(=C1/SCC(c2ncc(NC(=O)OCC3(F)CC3)cc2Cl)S1)n1cncn1` (racemic) [compound 150], which C. albicans (MIC) ([1]; Table 25, 35° C. for 24 hr) is on record?
Answer: Its C. albicans (MIC) is 5 ng/mL.

Question: What about the A. fumigatus (MIC) ([2]; Table 25, 35° C. for 48 hr) of the same compound?
Answer: Its A. fumigatus (MIC) is 10 ng/mL.

Question: `N#C/C(=C1/SCC(c2ncc(NC(=O)OCc3ccnc(F)c3)cc2Cl)S1)n1cncn1` (racemic) [compound 115] was tested. Which C. albicans (MIC) ([1]; Table 24, 35° C. for 24 hr) did it give?
Answer: The C. albicans (MIC) was 5 ng/mL.

Question: What about the A. fumigatus (MIC) ([2]; Table 24, 35° C. for 48 hr) of the same compound?
Answer: Its A. fumigatus (MIC) is 10 ng/mL.

Question: Which C. albicans (MIC) ([1]; Table 23, 35° C. for 24 hr) does the source give for `CCCOC(=O)Nc1cnc([C@@H]2CS/C(=C(/C#N)n3cncn3)S2)c(F)c1` [compound 110] here?
Answer: The C. albicans (MIC) was 10 ng/mL.

Question: What about the A. fumigatus (MIC) ([2]; Table 23, 35° C. for 48 hr) of the same compound?
Answer: Its A. fumigatus (MIC) is 5 ng/mL.

Question: `N#C/C(=C1/SCC(c2ncc(NC(=O)OCc3ccc(F)nc3)cc2Cl)S1)n1cncn1` (centres unmarked) [compound 74] was tested. Which C. albicans (MIC) ([1]; Table 23, 35° C. for 24 hr) did it give?
Answer: Its C. albicans (MIC) is 10 ng/mL.

Question: What about the A. fumigatus (MIC) ([2]; Table 23, 35° C. for 48 hr) of the same compound?
Answer: The A. fumigatus (MIC) was 10 ng/mL.

Question: `N#C/C(=C1/SC[C@@H](c2ncc(NC(=O)OCc3ccccc3)cc2F)S1)n1cncn1` [compound 106] was tested. Which C. albicans (MIC) ([1]; Table 23, 35° C. for 24 hr) did it give?
Answer: Its C. albicans (MIC) is 1.25 ng/mL.

Question: And the A. fumigatus (MIC) ([2]; Table 23, 35° C. for 48 hr)?
Answer: Its A. fumigatus (MIC) is 5 ng/mL.

Question: Which C. albicans (MIC) ([1]; Table 24, 35° C. for 24 hr) does the source give for `CC(C)ON=Cc1cnc(C2CSC(=C(C#N)n3cncn3)S2)c(Cl)c1` (racemic) [compound 142] here?
Answer: The C. albicans (MIC) was 2.5 ng/mL.

Question: And the A. fumigatus (MIC) ([2]; Table 24, 35° C. for 48 hr)?
Answer: The A. fumigatus (MIC) was 10 ng/mL.

Question: `N#C/C(=C1/SCC(c2ncc(NC(=O)OCC3CC3(F)F)cc2Cl)S1)n1cncn1` (racemic) [compound 96] was tested. Which C. albicans (MIC) ([1]; Table 23, 35° C. for 24 hr) did it give?
Answer: Its C. albicans (MIC) is 5 ng/mL.

Question: And the A. fumigatus (MIC) ([2]; Table 23, 35° C. for 48 hr)?
Answer: Its A. fumigatus (MIC) is 10 ng/mL.

Question: Which results are given for `N#C/C(=C1/SCC(c2ncc(NC(=O)OCC3CC3)cc2F)S1)n1cncn1` (racemic) [compound 103]?
Answer: C. albicans (MIC) ([1]; Table 23, 35° C. for 24 hr): 5 ng/mL; A. fumigatus (MIC) ([2]; Table 23, 35° C. for 48 hr): 10 ng/mL

Question: Which C. albicans (MIC) ([1]; Table 24, 35° C. for 24 hr) does the source give for `N#CC(=C1SCC(c2ncc(C=NOCC3CC3)cc2F)S1)n1cncn1` (racemic) [compound 140] here?
Answer: Its C. albicans (MIC) is 2.5 ng/mL.

Question: What about the A. fumigatus (MIC) ([2]; Table 24, 35° C. for 48 hr) of the same compound?
Answer: The A. fumigatus (MIC) was 2.5 ng/mL.

Question: Which “minimum inhibitory concentration against various fungi (MIC) C. albicans” value [1] does the source give for `N#C/C(=C1/SCC(c2ncc(/C=N/OCc3ccccc3)cc2F)S1)n1cncn1` (centres unmarked) [compound 22] here?
Answer: The value was 0.6 ng/mL (≈ 0.00137 µM).

Question: And the “minimum inhibitory concentration against various fungi (MIC) A. fumigatus” value [2]?
Answer: The value was 5 ng/mL (≈ 0.0114 µM).

Question: For `N#C/C(=C1/SCC(c2ncc(NC(=O)OCC3CCC3)cc2Cl)S1)n1cncn1` (racemic) [compound 97], which C. albicans (MIC) ([1]; Table 23, 35° C. for 24 hr) is on record?
Answer: Its C. albicans (MIC) is 2.5 ng/mL.

Question: What about the A. fumigatus (MIC) ([2]; Table 23, 35° C. for 48 hr) of the same compound?
Answer: The A. fumigatus (MIC) was 10 ng/mL.

Question: What does the source list for `N#C/C(=C1/SC[C@@H](c2ncc(NC(=O)OCC3CC3(F)F)cc2F)S1)n1cncn1` (some centres unmarked) [compound 131]?
Answer: C. albicans (MIC) ([1]; Table 24, 35° C. for 24 hr): 10 ng/mL; A. fumigatus (MIC) ([2]; Table 24, 35° C. for 48 hr): 10 ng/mL

Question: Which “minimum inhibitory concentration against various fungi (MIC) C. albicans” value [1] does the source give for `CC1(C)OCC(c2cnc(C3CS/C(=C(/C#N)n4ccnc4)S3)c(Cl)c2)O1` (centres unmarked) [compound 5] here?
Answer: Its value is 5 ng/mL (≈ 0.0119 µM).

Question: What about the “minimum inhibitory concentration against various fungi (MIC) A. fumigatus” value [2] of the same compound?
Answer: Its value is 10 ng/mL (≈ 0.0238 µM).

Question: For `N#C/C(=C1/SCC(c2ncc(NC(=O)OCCCCl)cc2Cl)S1)n1ccnc1` (centres unmarked) [compound 67], which C. albicans (MIC) ([1]; Table 23, 35° C. for 24 hr) is on record?
Answer: The C. albicans (MIC) was 2.5 ng/mL.

Question: And the A. fumigatus (MIC) ([2]; Table 23, 35° C. for 48 hr)?
Answer: Its A. fumigatus (MIC) is 10 ng/mL.

Question: `N#C/C(=C1/SCC(c2ncc(NC(=O)OCc3ccncc3F)cc2Cl)S1)n1cncn1` (racemic) [compound 114] was tested. Which C. albicans (MIC) ([1]; Table 24, 35° C. for 24 hr) did it give?
Answer: The C. albicans (MIC) was 10 ng/mL.

Question: What about the A. fumigatus (MIC) ([2]; Table 24, 35° C. for 48 hr) of the same compound?
Answer: The A. fumigatus (MIC) was 10 ng/mL.
